Assay results as given in PubChem BioAssay (NCI).
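Following 48 hours of exposure in 96-well plates, responses at five concentrations were used to interpolate endpoints linearly. At the TGI there is no net growth.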

How the values were obtained:
Assay in all cases: NCI anticancer screen, dose series, 48 h
786-0 renal = test system: 786-0 renal
SF-295 CNS = test system: SF-295 CNS
RPMI-8226 leukemia = test system: RPMI-8226 leukemia
NCI-H460 lung = test system: NCI-H460 lung
CAKI-1 renal = test system: CAKI-1 renal
OVCAR-3 ovarian = test system: OVCAR-3 ovarian
RXF 393 renal = test system: RXF 393 renal
SF-268 CNS = test system: SF-268 CNS
T-47D breast = test system: T-47D breast
OVCAR-5 ovarian = test system: OVCAR-5 ovarian
M14 melanoma = test system: M14 melanoma
BT-549 breast = test system: BT-549 breast
SK-MEL-5 melanoma = test system: SK-MEL-5 melanoma
MCF7 breast = test system: MCF7 breast
K-562 leukemia = test system: K-562 leukemia
SK-MEL-28 melanoma = test system: SK-MEL-28 melanoma
A549 NSCLC = test system: A549 NSCLC
U251 CNS = test system: U251 CNS
NCI-H23 lung = test system: NCI-H23 lung
NCI-H226 lung = test system: NCI-H226 lung
EKVX NSCLC = test system: EKVX NSCLC
MDA-MB-231 breast = test system: MDA-MB-231 breast
HCC-2998 colon = test system: HCC-2998 colon
UACC-62 melanoma = test system: UACC-62 melanoma
SK-MEL-2 melanoma = test system: SK-MEL-2 melanoma
SF-539 CNS = test system: SF-539 CNS
A498 renal = test system: A498 renal
HOP-62 NSCLC = test system: HOP-62 NSCLC
SK-OV-3 ovarian = test system: SK-OV-3 ovarian
SNB-19 CNS = test system: SNB-19 CNS
SNB-75 CNS = test system: SNB-75 CNS
LOX IMVI melanoma = test system: LOX IMVI melanoma
MDA-N = test system: MDA-N
MALME-3M melanoma = test system: MALME-3M melanoma
HL-60(TB) leukemia = test system: HL-60(TB) leukemia
MDA-MB-435 = test system: MDA-MB-435
OVCAR-4 ovarian = test system: OVCAR-4 ovarian
HCT-15 colon = test system: HCT-15 colon
PC-3 prostate = test system: PC-3 prostate
DU-145 prostate = test system: DU-145 prostate
ACHN renal = test system: ACHN renal
KM12 colon = test system: KM12 colon
TK-10 renal = test system: TK-10 renal
HCT-116 colon = test system: HCT-116 colon
HOP-92 NSCLC = test system: HOP-92 NSCLC
CCRF-CEM leukemia = test system: CCRF-CEM leukemia
SW-620 colon = test system: SW-620 colon
OVCAR-8 ovarian = test system: OVCAR-8 ovarian
HT29 colon = test system: HT29 colon
SN12C renal = test system: SN12C renal
COLO 205 colon = test system: COLO 205 colon
UACC-257 melanoma = test system: UACC-257 melanoma
NCI/ADR-RES ovarian = test system: NCI/ADR-RES ovarian
UO-31 renal = test system: UO-31 renal
MOLT-4 leukemia = test system: MOLT-4 leukemia
HS 578T breast = test system: HS 578T breast
IGROV1 ovarian = test system: IGROV1 ovarian
NCI-H522 lung = test system: NCI-H522 lung
SR leukemia = test system: SR leukemia

`CC(=O)N1CC(=O)N2C(=O)/C(=C/c3ccc(Cl)cc3)N=C12` gave a TGI (786-0 renal) greater than 100 µM, a TGI (SF-295 CNS) greater than 100 µM and a TGI (RPMI-8226 leukemia) greater than 100 µM. The TGI (NCI-H460 lung) was greater than 100 µM, the TGI (CAKI-1 renal) was greater than 100 µM and the TGI (OVCAR-3 ovarian) was greater than 100 µM. The TGI (RXF 393 renal) was greater than 100 µM, the TGI (SF-268 CNS) was greater than 100 µM and the TGI (T-47D breast) was greater than 100 µM. For the same compound, the TGI (OVCAR-5 ovarian) was greater than 100 µM, the TGI (M14 melanoma) was greater than 100 µM and the TGI (BT-549 breast) was greater than 100 µM. For the same compound, the TGI (SK-MEL-5 melanoma) was greater than 100 µM, the TGI (MCF7 breast) was greater than 100 µM and the TGI (K-562 leukemia) was greater than 100 µM. For the same compound, the TGI (SK-MEL-28 melanoma) was greater than 100 µM, the TGI (A549 NSCLC) was greater than 100 µM and the TGI (U251 CNS) was greater than 100 µM. For the same compound, the TGI (NCI-H23 lung) was greater than 100 µM, the TGI (NCI-H226 lung) was greater than 100 µM and the TGI (EKVX NSCLC) was greater than 100 µM. The TGI (MDA-MB-231 breast) was greater than 100 µM, the TGI (HCC-2998 colon) was greater than 100 µM and the TGI (UACC-62 melanoma) was greater than 100 µM. The TGI (SK-MEL-2 melanoma) was greater than 100 µM, the TGI (SF-539 CNS) was greater than 100 µM and the TGI (A498 renal) was greater than 100 µM. The TGI (HOP-62 NSCLC) was greater than 100 µM, the TGI (SK-OV-3 ovarian) was greater than 100 µM and the TGI (SNB-19 CNS) was greater than 100 µM. The TGI (SNB-75 CNS) was greater than 100 µM, the TGI (LOX IMVI melanoma) was greater than 100 µM and the TGI (MDA-N) was greater than 100 µM. The TGI (MALME-3M melanoma) was greater than 100 µM, the TGI (HL-60(TB) leukemia) was 56.4 µM and the TGI (MDA-MB-435) was greater than 100 µM. For the same compound, the TGI (OVCAR-4 ovarian) was greater than 100 µM, the TGI (HCT-15 colon) was greater than 100 µM and the TGI (PC-3 prostate) was greater than 100 µM. It also gave a TGI (DU-145 prostate) greater than 100 µM, a TGI (ACHN renal) greater than 100 µM and a TGI (KM12 colon) greater than 100 µM. The TGI (TK-10 renal) was greater than 100 µM, the TGI (HCT-116 colon) was greater than 100 µM and the TGI (HOP-92 NSCLC) was greater than 100 µM. The TGI (CCRF-CEM leukemia) was greater than 100 µM, the TGI (SW-620 colon) was greater than 100 µM and the TGI (OVCAR-8 ovarian) was greater than 100 µM. For the same compound, the TGI (HT29 colon) was greater than 100 µM, the TGI (SN12C renal) was greater than 100 µM and the TGI (COLO 205 colon) was greater than 100 µM. It also gave a TGI (UACC-257 melanoma) greater than 100 µM, a TGI (NCI/ADR-RES ovarian) greater than 100 µM and a TGI (UO-31 renal) greater than 100 µM. The TGI (MOLT-4 leukemia) was greater than 100 µM and the TGI (HS 578T breast) was greater than 100 µM.

Work on `CC(C)=CCN1c2ccc(Cl)cc2NC(=O)CC1C` (centres undefined) yielded a TGI (786-0 renal) of 34.8 µM, a TGI (SF-295 CNS) greater than 100 µM and a TGI (IGROV1 ovarian) of 62.4 µM. It also gave a TGI (RPMI-8226 leukemia) of 50.1 µM, a TGI (NCI-H460 lung) of 37.6 µM and a TGI (CAKI-1 renal) of 43.8 µM. It also gave a TGI (OVCAR-3 ovarian) of 36 µM, a TGI (RXF 393 renal) of 76 µM and a TGI (SF-268 CNS) greater than 100 µM. It also gave a TGI (T-47D breast) greater than 100 µM, a TGI (OVCAR-5 ovarian) greater than 100 µM and a TGI (M14 melanoma) of 36.1 µM. It also gave a TGI (BT-549 breast) of 59.5 µM, a TGI (SK-MEL-5 melanoma) of 32.2 µM and a TGI (MCF7 breast) of 45.6 µM. The TGI (K-562 leukemia) was greater than 100 µM, the TGI (SK-MEL-28 melanoma) was greater than 100 µM and the TGI (A549 NSCLC) was greater than 100 µM. The TGI (U251 CNS) was 76.6 µM, the TGI (NCI-H23 lung) was 74.9 µM and the TGI (NCI-H226 lung) was 46.9 µM. For the same compound, the TGI (EKVX NSCLC) was 83.5 µM, the TGI (MDA-MB-231 breast) was 45.7 µM and the TGI (HCC-2998 colon) was greater than 100 µM. The TGI (NCI-H522 lung) was 47.4 µM, the TGI (SK-MEL-2 melanoma) was 39.5 µM and the TGI (SF-539 CNS) was 45.4 µM. The TGI (A498 renal) was 49 µM, the TGI (HOP-62 NSCLC) was 61.7 µM and the TGI (SK-OV-3 ovarian) was greater than 100 µM. For the same compound, the TGI (SNB-19 CNS) was greater than 100 µM, the TGI (LOX IMVI melanoma) was 33.2 µM and the TGI (MDA-N) was 51.7 µM. It also gave a TGI (MALME-3M melanoma) of 49.6 µM, a TGI (HL-60(TB) leukemia) greater than 100 µM and a TGI (MDA-MB-435) of 41.1 µM. The TGI (OVCAR-4 ovarian) was 87.9 µM, the TGI (HCT-15 colon) was greater than 100 µM and the TGI (PC-3 prostate) was 61.1 µM. The TGI (DU-145 prostate) was greater than 100 µM, the TGI (ACHN renal) was 58.3 µM and the TGI (KM12 colon) was 68.6 µM. The TGI (TK-10 renal) was 87.7 µM, the TGI (HCT-116 colon) was 38 µM and the TGI (HOP-92 NSCLC) was 37.8 µM. The TGI (CCRF-CEM leukemia) was greater than 100 µM, the TGI (SR leukemia) was greater than 100 µM and the TGI (SW-620 colon) was greater than 100 µM. It also gave a TGI (OVCAR-8 ovarian) of 39.6 µM, a TGI (HT29 colon) of 37.2 µM and a TGI (SN12C renal) of 58 µM. For the same compound, the TGI (COLO 205 colon) was 56.9 µM, the TGI (UACC-257 melanoma) was 47.3 µM and the TGI (UO-31 renal) was greater than 100 µM. For the same compound, the TGI (MOLT-4 leukemia) was greater than 100 µM and the TGI (HS 578T breast) was 72.1 µM.

`O=c1c2cc([N+](=O)[O-])ccc2nc2n1CCCCC2` was tested, and the TGI (786-0 renal) was greater than 100 µM, the TGI (SF-295 CNS) was greater than 100 µM and the TGI (IGROV1 ovarian) was greater than 100 µM. For the same compound, the TGI (RPMI-8226 leukemia) was greater than 100 µM, the TGI (NCI-H460 lung) was greater than 100 µM and the TGI (CAKI-1 renal) was greater than 100 µM. The TGI (OVCAR-3 ovarian) was greater than 100 µM, the TGI (RXF 393 renal) was greater than 100 µM and the TGI (SF-268 CNS) was greater than 100 µM. For the same compound, the TGI (T-47D breast) was greater than 100 µM, the TGI (OVCAR-5 ovarian) was greater than 100 µM and the TGI (M14 melanoma) was greater than 100 µM. The TGI (BT-549 breast) was greater than 100 µM, the TGI (SK-MEL-5 melanoma) was greater than 100 µM and the TGI (MCF7 breast) was greater than 100 µM. The TGI (K-562 leukemia) was greater than 100 µM, the TGI (SK-MEL-28 melanoma) was greater than 100 µM and the TGI (A549 NSCLC) was greater than 100 µM. For the same compound, the TGI (U251 CNS) was greater than 100 µM, the TGI (NCI-H23 lung) was greater than 100 µM and the TGI (NCI-H226 lung) was greater than 100 µM. The TGI (EKVX NSCLC) was greater than 100 µM, the TGI (MDA-MB-231 breast) was greater than 100 µM and the TGI (UACC-62 melanoma) was greater than 100 µM. For the same compound, the TGI (NCI-H522 lung) was greater than 100 µM, the TGI (SK-MEL-2 melanoma) was greater than 100 µM and the TGI (SF-539 CNS) was greater than 100 µM. It also gave a TGI (A498 renal) greater than 100 µM, a TGI (HOP-62 NSCLC) greater than 100 µM and a TGI (SK-OV-3 ovarian) greater than 100 µM. For the same compound, the TGI (SNB-75 CNS) was greater than 100 µM, the TGI (LOX IMVI melanoma) was greater than 100 µM and the TGI (MDA-N) was greater than 100 µM. It also gave a TGI (MALME-3M melanoma) greater than 100 µM, a TGI (HL-60(TB) leukemia) greater than 100 µM and a TGI (MDA-MB-435) greater than 100 µM. It also gave a TGI (OVCAR-4 ovarian) greater than 100 µM, a TGI (HCT-15 colon) greater than 100 µM and a TGI (PC-3 prostate) greater than 100 µM. It also gave a TGI (DU-145 prostate) greater than 100 µM, a TGI (ACHN renal) greater than 100 µM and a TGI (KM12 colon) greater than 100 µM. The TGI (TK-10 renal) was greater than 100 µM, the TGI (HCT-116 colon) was greater than 100 µM and the TGI (HOP-92 NSCLC) was greater than 100 µM. It also gave a TGI (CCRF-CEM leukemia) greater than 100 µM, a TGI (SR leukemia) greater than 100 µM and a TGI (SW-620 colon) greater than 100 µM. It also gave a TGI (OVCAR-8 ovarian) greater than 100 µM, a TGI (HT29 colon) greater than 100 µM and a TGI (SN12C renal) greater than 100 µM. For the same compound, the TGI (COLO 205 colon) was greater than 100 µM, the TGI (UACC-257 melanoma) was greater than 100 µM and the TGI (NCI/ADR-RES ovarian) was greater than 100 µM. The TGI (UO-31 renal) was greater than 100 µM, the TGI (MOLT-4 leukemia) was greater than 100 µM and the TGI (HS 578T breast) was greater than 100 µM.
